Source: US20240374535A1, “COMPOSITIONS AND METHODS FOR TREATING BIOFILM DISORDERS AND INFECTIONS” (AHV International B.V., priority 2021, published 2024)
Like-named read-outs stand apart in the source and are kept apart here.

Columns and labels:
[1] = test system: Staphylococcus epidermis ATCC 35984; assay: MIC assay (planktonic growth inhibition, OD600); type: cell-based, S. epidermidis; settings: for IC50: read-out: S. epidermidis MIC50; for IC90: read-out: S. epidermidis MIC90
Description: (§1) The exact weighed amount was noted and the volume of solvent to reach a 80 mM dilution calculated. Half of the volume was added first, by adding Tween 80. In a second step, the other half of the volume DMSO was added and the closed tube inverted 5-10 times and then vortexed very thoroughly for at least 30 seconds. If after this procedure unsolved material was still visible, the tube was placed in a shaker at 37° C. at 150 rpm for at least 30 minutes. […] For the MBEC assay (method 1.3) the solution needs to be diluted to a final concentration of 2 mM in 0.9% saline solution and then further diluted to 1 mM, 0.5 mM, 0.25 mM and 0.125 mM in saline. Those dilutions were added as treatment to the 96 well plates with the grown biofilm (see method 3).
(§2) Frozen aliquots of Staphylococcus epidermis ATCC 35984 and Pseudomonas aeruginosa ATCC 27853 were used to inoculate a tryptic soy agar (TSA) plate and incubated overnight at 37° C. After incubation 3-5 well-isolated colonies with the same morphology were selected from the TSA plate and resuspended in 2 mL 0.9% saline solution with 3-6 glass beads and vortexed. The optical density at 600 nm (OD600) of the bacterial suspension was measured with a spectrophotometer (Evolution™ 201/220 UV-Visible Spectrophotometer, Thermo Fisher Scientific) and diluted to an OD600 of 0.0008, which resembles 10^6 CFU/mL.
(§3) The MIC assay was performed in a flat-bottom 96-microtiter plate. 50 μL of MHB-II was added into columns 2-11, and 100 μL to column 12 for sterility control. 100 μL of the 8 mM test compound solution (method 1) was added to column 1. A two-fold dilution series of the solution in MHB-II was achieved by resuspending 50 μL of the 8 mM solution from column 1 to column 2. This step was repeated until column 10. The respective concentration of Tween 80 and DMSO in column 1 was 2.5%, which is two-fold diluted throughout the plate. 50 μL of the bacterial suspension was added to column 1-11. The microtiter plates were sealed with adhesive polyethylene film for sealing microplates (Diversified Biotech) and incubated for 24 h at 37° C. After incubation the OD was measured at 600 nm with the Varioskan (Thermo Fisher Scientific). […] This assay was repeated three times in three independent experiments.

[2] = test system: Pseudomonas aeruginosa ATCC 27853; assay: MIC assay (planktonic growth inhibition, OD600); type: cell-based, P. aeruginosa; settings: for IC50 / IC90: Pseudomonas aeruginosa; for IC50: read-out: P. aeruginosa MIC50; for IC90: read-out: P. aeruginosa MIC90
Description: as §1, §2, §3

[3] = test system: Staphylococcus epidermis ATCC 35984 biofilm; assay: MBEC assay (biofilm eradication, CFU log reduction); type: cell-based, S. epidermidis; settings: for minimal effective concentration: read-out: S. epidermidis MBEC mM with log reduction ≥1
Description: as §1
(§4) Frozen aliquots of Staphylococcus epidermis ATCC 35984 and Pseudomonas aeruginosa ATCC 27853 were used to inoculate 20 mL of Tryptic Soy Broth (TSB) in a 100 mL Erlenmeyer flask at 37° C. and 150 rpm and incubated overnight (Infors). The OD600 of the overnight culture was measured with a spectrophotometer (Evolution™ 201/220 UV-Visible Spectrophotometer, Thermo Fisher Scientific) and diluted to an OD600 of 0.2, which resembles 10^8 CFU/mL. The cell suspension of OD600=0.2 was seeded into a U-bottom-shaped 96 well plates by pipetting 100 μL per well in column 1-11, column 12 was filled with 100 μL medium as sterility control. The 96 well plates were sealed with adhesive polyethylene film for sealing microplates and incubated for 48 h at 37° C. at static conditions. After the biofilm growth phase, 100 μL of treatment solutions (method 1) were added to the vials resulting in treatment concentrations of 1 mM, 0.5 mM, 0.25 mM and 0.125 mM and with the respective concentration of Tween 80 and DMSO each at 0.63%, 0.32%, 0.16% and 0.08%. The same concentration was applied to four different wells of the same bacterial strain, resulting in four replicates for each concentration and strain. The treatment was incubated for 20 h at 37° C. at static conditions. After the treatment the supernatant was carefully removed and the well with the biofilm washed carefully for one time with 200 μL 0.9% saline solution. 200 μL saline solution was added and the biofilm was resuspended thoroughly. When fully homogenized then 20 μL was used for the first dilution in 180 μL 0.9% saline solution, which was prepared in a second plate. This dilution was continued until dilution step 10E−5 and 100 μL of the 10E−4 and 10E−5 dilution plated on a TSA plate. The TSA plates were incubated at 37° C. for 24 h. The colonies on the plates were enumerated, the colony forming units per mL of the dispensed biofilm and averages thereof and the log reduction in comparison with the untreated sample from the same wells plate calculated. Reduction of colony forming units goes hand in hand with the thickness of the biofilm and thus with the number bacteria that are present in the biofilm. Therefore, a significant reduction of colony forming units in the biofilm was defined at the value of log reduction ≥1 or more. This assay was repeated two times in two independent experiments)

[4] = test system: Pseudomonas aeruginosa ATCC 27853 biofilm; assay: as above; type: cell-based, P. aeruginosa; settings: for minimal effective concentration: Pseudomonas aeruginosa, read-out: P. aeruginosa MBEC mM with log reduction ≥1
Description: as §1, §4

udder cleft wound = assay: In vivo udder cleft dermatitis test: wound assessment after spray treatment; parameters: species or system cow; settings: for Conclusion (effect on udder cleft wound): over 60 days, all cows of the group
Description: An example of a biofilm-related disorder is Udder Cleft Dermatitis (UCD), which relates to a chronic wound. In this Example, di-alkyl thiosulfonates, dialkyl thiosulfinates and di-alkyl disulfides were tested for their effect on cows affected by UCD.
Experiments were performed to examine the effect of various sprays containing water (control), a test compound, or a reference compound (CTC spray, which contains chlorotetracycline hydrochloride, and was obtained from Dechra veterinary products).
0.35 mL of the spray was sprayed on an udder cleft wound per treatment. Treatments took place once a day at t=0, at t=3 days and t=6 days. In Table 6, the assessment qualifications that are used in Table 7, are explained.

[5] = minimal concentration reducing final OD600 by 50%, 24 h at 37° C.
[6] = minimal concentration reducing final OD600 by 90%, 24 h at 37° C.
[7] = ATCC27853, minimal concentration reducing final OD600 by 50%, 24 h at 37° C.
[8] = ATCC27853, minimal concentration reducing final OD600 by 90%, 24 h at 37° C.
[9] = 48 h grown biofilm, 20 h treatment, CFU log reduction vs untreated
[10] = ATCC27853, 48 h grown biofilm, 20 h treatment, CFU log reduction vs untreated

Fc1ccc(SSc2ccc(F)cc2)cc1 [Bis (4-fluorophenyl) disulfide]
IC50 [1, 5]: 0.06 mM
IC90 [1, 6]: 0.06 mM
IC50 [2, 7]: 0.125 mM
IC90 [2, 8]: 0.25 mM
minimal effective concentration [3, 9]: > 1 mM
minimal effective concentration [4, 10]: > 1 mM
Conclusion (effect on udder cleft wound) (udder cleft wound): No effect

COc1ccc(SSc2ccc(OC)cc2)cc1 [Bis (4-methoxyphenyl) disulfide, Bis(4-methoxyphenyl) disulfide]
IC50 [1, 5]: > 4 mM
IC90 [1, 6]: > 4 mM
IC50 [2, 7]: > 4 mM
IC90 [2, 8]: > 4 mM
minimal effective concentration [3, 9]: > 1 mM
minimal effective concentration [4, 10]: > 1 mM
Conclusion (effect on udder cleft wound) (udder cleft wound): No effect

c1ccc(CSSCc2ccccc2)cc1 [Di-benzyl disulfide]
IC50 ([1]; 24 h): > 4 mM
IC90 ([1]; 24 h): > 4 mM
IC50 ([2]; ATCC27853, 24 h): > 4 mM
IC90 ([2]; ATCC27853, 24 h): > 4 mM
minimal effective concentration ([3]; 20 h): > 1 mM
minimal effective concentration ([4]; ATCC27853, 20 h): > 1 mM
Conclusion (effect on udder cleft wound) (udder cleft wound): No effect

O=S(=O)(Cc1ccccc1)SCc1ccccc1 [Di-benzyl thiosulfonate]
S. epidermidis MIC50 [1, 5]: 2000 µM
S. epidermidis MIC90 [1, 6]: 4000 µM
P. aeruginosa MIC50 [2, 5]: 4000 µM
P. aeruginosa MIC90 [2, 6]: >4000 µM
S. epidermidis MBEC mM with log reduction ≥1 [3, 9]: 0.125 mM
P. aeruginosa MBEC mM with log reduction ≥1 [4, 9]: 0.125 mM

CCSSCC [Di-ethyl disulfide]
IC50 ([1]; 24 h): > 4 mM
IC90 ([1]; 24 h): > 4 mM
IC50 ([2]; ATCC27853, 24 h): > 4 mM
IC90 ([2]; ATCC27853, 24 h): > 4 mM
minimal effective concentration ([3]; 20 h): > 1 mM
minimal effective concentration ([4]; ATCC27853, 20 h): > 1 mM

CCS[S+]([O-])CC (stereo not drawn) [Di-ethyl thiosulfinate, S-ethyl ethanesulfinothioate]
Conclusion (effect on udder cleft wound) (udder cleft wound): No effect

c1coc(CSSCc2ccco2)c1 [Di-furfuryl disulfide]
IC50 [1, 5]: 2 mM
IC90 [1, 6]: > 4 mM
IC50 [2, 7]: 2 mM
IC90 [2, 8]: > 4 mM
minimal effective concentration [3, 9]: > 1 mM
minimal effective concentration [4, 10]: > 1 mM

CSSC [Di-methyl disulfide]
IC50 ([1]; 24 h): > 4 mM
IC90 ([1]; 24 h): > 4 mM
IC50 ([2]; ATCC27853, 24 h): > 4 mM
IC90 ([2]; ATCC27853, 24 h): > 4 mM
minimal effective concentration ([3]; 20 h): > 1 mM
minimal effective concentration ([4]; ATCC27853, 20 h): > 1 mM

CCCCS[S+]([O-])CCCC (stereo not drawn) [Di-n-butyl thiosulfinate, S-butyl butane-1-sulfinothioate]
inflammation of the udder cleft wound after treatment (udder cleft wound; immediately after the treatment, later infection reduced and wound healed): fast inflammation reduction
Conclusion (effect on udder cleft wound) (udder cleft wound): Positive effect

CCCCCCCCCCSSCCCCCCCCCC [Di-n-decyl disulfide]
IC50 [1, 5]: > 4 mM
IC90 [1, 6]: > 4 mM
IC50 [2, 7]: > 4 mM
IC90 [2, 8]: > 4 mM
minimal effective concentration [3, 9]: > 1 mM
minimal effective concentration [4, 10]: > 1 mM

CCCCCCSSCCCCCC [Di-n-hexyl disulfide]
IC50 [1, 5]: > 4 mM
IC90 [1, 6]: > 4 mM
IC50 [2, 7]: > 4 mM
IC90 [2, 8]: > 4 mM
minimal effective concentration [3, 9]: > 1 mM
minimal effective concentration [4, 10]: > 1 mM

CCCSSC [Methyl propyl disulfide]
IC50 [1, 5]: > 4 mM
IC90 [1, 6]: > 4 mM
IC50 [2, 7]: > 4 mM
IC90 [2, 8]: > 4 mM
minimal effective concentration [3, 9]: > 1 mM
minimal effective concentration [4, 10]: > 1 mM

CCCCCCCCCCS[S+]([O-])CCCCCCCCCC (stereo not drawn) [S-decyl-1-decane thiosulfinate]
S. epidermidis MIC50 [1, 5]: >4000 µM
S. epidermidis MIC90 [1, 6]: >4000 µM
P. aeruginosa MIC50 [2, 5]: >4000 µM
P. aeruginosa MIC90 [2, 6]: >4000 µM
S. epidermidis MBEC mM with log reduction ≥1 [3, 9]: >1 mM
P. aeruginosa MBEC mM with log reduction ≥1 [4, 9]: >1 mM

CCCSS(=O)(=O)c1ccc(C)cc1 [S-propyl-4-methylbenzene thiosulfonate]
S. epidermidis MIC50 [1, 5]: 60 µM
S. epidermidis MIC90 [1, 6]: 130 µM
P. aeruginosa MIC50 [2, 5]: 60 µM
P. aeruginosa MIC90 [2, 6]: 60 µM
S. epidermidis MBEC mM with log reduction ≥1 [3, 9]: 0.5 mM
P. aeruginosa MBEC mM with log reduction ≥1 [4, 9]: >1 mM

Bis(4-Chlorophenyl) thiosulfonate [Bis (4-chlorophenyl) thiosulfonate]
S. epidermidis MIC50 [1, 5]: 30 µM
S. epidermidis MIC90 [1, 6]: 60 µM
P. aeruginosa MIC50 [2, 5]: 250 µM
P. aeruginosa MIC90 [2, 6]: 2000 µM
S. epidermidis MBEC mM with log reduction ≥1 [3, 9]: >1 mM
P. aeruginosa MBEC mM with log reduction ≥1 [4, 9]: >1 mM

Bis(4-Fluorophenyl) thiosulfonate [Bis (4-fluorophenyl) thiosulfonate]
S. epidermidis MIC50 [1, 5]: 250 µM
S. epidermidis MIC90 [1, 6]: 2000 µM
P. aeruginosa MIC50 [2, 5]: 2000 µM
P. aeruginosa MIC90 [2, 6]: 2000 µM
S. epidermidis MBEC mM with log reduction ≥1 [3, 9]: >1 mM
P. aeruginosa MBEC mM with log reduction ≥1 [4, 9]: >1 mM

Bis(4-chlorophenyl) thiosulfinate [Bis (4-chlorophenyl) thiosulfinate]
S. epidermidis MIC50 [1, 5]: 20 µM
S. epidermidis MIC90 [1, 6]: 20 µM
P. aeruginosa MIC50 [2, 5]: 20 µM
P. aeruginosa MIC90 [2, 6]: 20 µM
S. epidermidis MBEC mM with log reduction ≥1 [3, 9]: >1 mM
P. aeruginosa MBEC mM with log reduction ≥1 [4, 9]: >1 mM

Bis(4-fluorophenyl) thiosulfinate [Bis (4-fluorophenyl) thiosulfinate]
S. epidermidis MIC50 [1, 5]: 125 µM
S. epidermidis MIC90 [1, 6]: 250 µM
P. aeruginosa MIC50 [2, 5]: 1000 µM
P. aeruginosa MIC90 [2, 6]: 4000 µM
S. epidermidis MBEC mM with log reduction ≥1 [3, 9]: >1 mM
P. aeruginosa MBEC mM with log reduction ≥1 [4, 9]: >1 mM

Di-isopropyl thiosulfonate
S. epidermidis MIC50 [1, 5]: 2000 µM
S. epidermidis MIC90 [1, 6]: 2000 µM
P. aeruginosa MIC50 [2, 5]: 2000 µM
P. aeruginosa MIC90 [2, 6]: 2000 µM
S. epidermidis MBEC mM with log reduction ≥1 [3, 9]: >1 mM
P. aeruginosa MBEC mM with log reduction ≥1 [4, 9]: >1 mM
